Experimental data: patent EP0642348B1, “[…] PEPTIDES AND METHODS OF THEIR USE” (THE REGENTS OF THE UNIVERSITY OF CALIFORNIA, priority 1992, dated 2000)
No end group written: not given here.

Key:
[1] = test system: isogenic phoP mutant of S. typhimurium (strain CS015 phoP102::Tn10d-Cam); assay: agar (plate) diffusion antibacterial assay, clear zones; type: cell-based; conditions: phoP mutant (attenuated, avirulent) S. typhimurium; modified plate diffusion assay; result in words, compared with wild-type
From the text: (§1) • Figure 1 provides the consensus structures of mouse cryptdins 1-5 and rat cryptdin-1. Amino acid residues are indicated by single-letter code. Dashed lines are included in mouse cryptdin-4 and rat cryptdin-1 in order to preserve the consensus sequence where these peptides are shorter than other cryptdins. Invariant residues in the enteric cryptdin peptides are boxed. […] Acid extract of jejunum and ileum was chromatographed in 30% acetic acid on a P-60 column. Fractions indicated by the bracket (panel A) were pooled and rechromatographed on the P-60 column (panel B). Cryptdin containing fractions (bracket, panel B) were pooled and further purified by RP-HPLC on 0.46 x 25 cm Vydac C-18 column. Water-acetonitrile gradient elution (--) using 0.13% (vol/vol) HFBA as modifier was used to purify cryptdins 1-5. […] Samples of low molecular weight enteric peptides obtained by P-60 gel filtration (Figure 2, [panel B]) and purified cryptdins were electrophoresed on a 12.5% acid-urea gel and stained with formalin-containing Coomassie Blue. […] After incubation at 37°C for 18 hours, antimicrobial activity was evaluated by measurement of the diameters of the clear zones. […]
(§2) The antimicrobial, or antibacterial, activity of cryptdins can be measured against various pathogens. […]

[2] = test system: wild-type Salmonella typhimurium (ATCC 10428); assay: as above; type: cell-based; conditions: wild-type S. typhimurium; modified plate diffusion assay; result in words, compared with the phoP mutant
From the text: as §1, §2

[3] = test system: phoP mutant S. typhimurium; conditions: compared to wild-type parent strains; Fields et al., Miller et al. 1990; cited from earlier work

Substance | antimicrobial activity [1] | antimicrobial activity [2] | sensitivity of mutants in the phoP locus [3]
NP-1: rabbit defensin (VVCACRRALCLPRERRAGFCRIRGRIHPLCCRR; ends and bridges not checked; cysteine pairing not given here; UniProt P01376 63-95, looked up) | quite similar | quite similar | particularly sensitive
NP-2: rabbit defensin (VVCACRRALCLPLERRAGFCRIRGRIHPLCCRR; ends and bridges not checked; cysteine pairing not given here; UniProt P01377 63-95, looked up) |  |  | particularly sensitive
